From patent US20080009546A1 (Chevron U.S.A. Inc., priority 2005, published 2008)
Where two headings read alike, the source gives them in different places.

Legend:
[1] = Dissolving compounds to make 10 mM stock solution; format: physicochemical; conditions: deionized water or assay friendly solvents, hot water
Method: Following assay establishment, the test compounds were tested for binding affinities. The concentrations selected for the experiments were chosen according to what was found for memantine in our assay. The first task was to dissolve the compounds and make up the 10 mM stock solution for further experiments. Those compounds that were made into salt format were easy to dissolve in deionized water, but the other compounds were difficult to bring into solution. Several “assay friendly” solvents have been tried, such as molecusol, acetic acid and propylene glycol followed by putting the vial into hot water.

[2] = test system: primary neurons from rat cerebral cortex; test: NMDA-induced LDH release assay in primary cortical neurons (neuroprotection); format: cell-based
Method: The neuroprotective properties of drugs have been studied in vitro, using neurons cultured from cortex, cerebellum or retina. […] Neurotoxicity is determined in this assay by measuring lactate dehydrogenase (LDH), a method which is simple, accurate and reproducible. We conducted pilot studies to test if poly-lysine-coated plates would be suitable as a matrix upon which to plate fetal neurons, compared to astrocyte-coated plates. We also compared the use of growth medium to neurobasal medium supplemented with B27 in the pilot experiments. The concentrations of NMDA (300-500 μM), glycine (10-50 μM), and memantine (10-100 μM) were varied, and optimum concentrations and times determined from these pilot studies were then chosen for the main study. The assay is described below.
Fetal rat neocortical cells were cultured on a mouse astroglial feeder layer. To obtain mouse astroglial cells for the feeder layer, cortices were harvested from 1-day old Swiss Webster mice (Charles River, Hollister, Calif.) according to the procedure described by Rose et al (1993). After dissecting cortices in ice-cold dissecting medium, they were minced and incubated in 0.09% trypsin in media stock for 1 hr, followed by resuspension in growth medium containing 10% equine serum and 10% fetal bovine serum. A single-cell suspension was obtained by triturating through fire-bored glass pipettes, and the resulting cell suspension was plated at a density of 0.5-0.75 hemispheres/24-well plate/9.6 ml, with 0.4 ml/well. Plates were incubated in a humidified incubator at 37° C., 5% CO2. Astroglial cells become confluent in about 2-3 weeks, at which time these cultures are ready to be used as feeder layers upon which neuronal cultures can be plated. Neuronal cells were obtained from gestational Sprague-Dawley rats E16-E18, using a similar dissection procedure. Rat embryos were dissected to obtain cortical tissue, which was plated as a single-cell suspension at a density of 1.4 hemispheres/24-well plate/9.6 ml, with 0.4 ml/well. These cells were plated on the existing astroglial feeder layer, and were incubated at 37° C., 5% CO2. After 5 days in culture, cytosine arabinoside (10 μM) was added to the wells to inhibit glial cell proliferation, and after 24 hours, the medium was replaced with fresh growth medium. Cells were fed with fresh growth medium every 2 days, until the experiments were performed. For coating plates with poly-lysine, we used poly-d-lysine hydrobromide (Sigma Cat # P7280) at a concentration of 0.1 mg/ml to coat each well using a minimum volume of 0.2 ml/well. After coating for 5 minutes, the solution was aspirated and wells were rinsed thoroughly with sterile tissue culture grade water. After drying for 2 hours, plates were ready for use. Neuronal cultures were plated onto poly-lysine-coated plates at the same density as above. For the pilot study, some of the cultures were fed with 1:1 ratio of growth medium: neurobasal medium (GIBCO)+B-27 supplement (2%), while the rest of the cultures were fed with growth medium alone (Losi et al., 2006). For the main study, we used astroglial feeder layers to plate the neuronal cultures, and used a mix (1:1) of growth medium with neurobasal medium+B-27 supplement for feeding the cultures.
After 11-14 days in culture, neuronal cells were confluent and experiments were performed. Cells were washed twice using sterile Locke's buffer (154 mM NaCl, 5.6 mM KCl, 2.3 mM CaCl2, 3.6 mM NaHCO3, 5.5 mM D-glucose, 5 mM HEPES, pH 7.4), and then exposed to the various treatment compounds. […] After 15 minutes, cultures were washed twice and incubated overnight in media stock. After 24 hours, supernatants and lysates were collected to measure LDH activity. LDH activity was measured by the reduction of NAD, which was utilized in the stoichiometric conversion of a tetrazolium dye using a kit (Sigma TOX-7). Supernatants were removed from the wells and centrifuged before LDH measurements. The adherent cells were lysed to obtain total LDH. […]

NMDA receptor = test: Whole-cell voltage-clamp recordings of NMDA evoked currents in hypocretin neurons (hypothalamic slices); format: cell-based, mouse; conditions: for inhibition of the peak amplitude of NMDA evoked currents: bath application, -60 mV, mean±SEM
C57/BL6 male mice [3] = test: Pentylenetetrazol (PTZ)-induced seizure/death model; format: in vivo, mouse; conditions: for PTZ-induced death / # of deaths within 30 min: PTZ 100 mg/kg; for # of deaths within 30 min / # mice with L3 seizure / # mice with L4 seizure: 6 mice; for Time to death: mice that died within 30 min
Method: Although the protection against death is the key endpoint, other effects of the compounds on PTZ-induced seizures were also assessed using multiple parameters. For the mice that did die within the 30 minute observation window, the time of death was also compared. […] The seizure occurrence rate, onset time and number of level 3 (L3) seizure (repetitive seizures but the animal can still stand) and level 4 (L4) seizure (repetitive seizures and the animal loses righting) are also analyzed. The MDT compound (30 mg/kg) treated groups show a certain degree of improvement compared to control. No data from MK801 or memantine were included because the seizures occurring under these treatments are totally different from the control or MDT injected groups due to side effects (“high jumping”).

C57/BL6 male mice [4] = conditions: for MES-induced death: mice; for # of deaths / # of extensions: 6 mice
C57/BL6 male mice [5] = test: Rotarod test (balance and coordination, side effects)
Method: The side effects of the compounds was primarily evaluated using the rotarod test, which mainly assesses the balancing and coordination of mice. The comparisons were made on fall time of the mice between the first measure (pre-treatment) and second measure taken 20 min after the drug/vehicle injection in the same group (paired t-test). […] Comparisons of the rotatod fall times after drug/vehicle dosing were made between drug treatment and control groups (unpaired t-test).

[6] = NMDA 300 uM + MK801 1 uM, Plate #4, poly-lysine-coated rat neurons, GM/NB + B-27 fed, 24 hour incubation
[7] = NMDA 300 uM + MK801 1 uM, Plate #5, astrocyte-coated rat neurons, GM fed, 24 hour incubation
[8] = NMDA 300 uM + MK801 1 uM, astrocyte-coated rat neurons, GM/NB + B-27 fed, 24 hour incubation
[9] = NMDA 500 μM + MK801 1 μM, astrocyte-coated rat neurons, GM/NB + B-27 fed, 21 hour incubation
[10] = NMDA 500 uM + MK801 1 uM, poly-lysine-coated rat neurons, GM/NB + B-27 fed, 40 hour incubation

O=C(O)C12CC3C4CC5(C(=O)O)CC3C(C1)C(C5)C4C2 [MDT-20]
dissolution for 10 mM stock solution [1]: did not go into solution, or came out with time

C[C@]12N[C@H](Cc3ccccc31)c1ccccc12 [MK-801, reference compound]
% (Control Wash = 100) [2, 6]: 143% | Secreted LDH (Avg) [2, 6]: 0.62 | Secreted/(total + secreted) (Avg) [2, 6]: 15.63 | Total LDH (Avg) [2, 6]: 3.34 | % (Control Wash = 100) [2, 7]: 92% | Secreted LDH (Avg) [2, 7]: 0.18 | Secreted/(total + secreted) (Avg) [2, 7]: 5.43 | Total LDH (Avg) [2, 7]: 3.18 | % (Control Wash = 100) [2, 8]: 241% | Secreted LDH (Avg) [2, 8]: 0.74 | Secreted/(total + secreted) (Avg) [2, 8]: 17.39 | Total LDH (Avg) [2, 8]: 3.51 | % (Control Wash = 100) [2, 9]: 125% | Secreted LDH (Avg) [2, 9]: 0.43 | Secreted/(total + secreted) (Avg) [2, 9]: 10.39 | Total LDH (Avg) [2, 9]: 3.71 | % (Control Wash = 100) [2, 10]: 96% | Secreted LDH (Avg) [2, 10]: 0.36 | Secreted/(total + secreted) (Avg) [2, 10]: 11.04 | Total LDH (Avg) [2, 10]: 2.90 | inhibition of the peak amplitude of NMDA evoked currents (NMDA receptor; 100 nM): 58±9.4% | Mortality rate (C57/BL6 male mice [3]; 1.0 mg/kg i.p.): 0 | PTZ-induced death (C57/BL6 male mice [3]; 1 mg/kg i.p.): full protection | # of deaths within 30 min (C57/BL6 male mice [3]; 1.0 mg/kg i.p.): 0 | Extension rate (C57/BL6 male mice [4]; 0.5 mg/kg i.p.): 0.50 | Mortality rate (C57/BL6 male mice [4]; 0.5 mg/kg i.p.): 0.50 | MES-induced death (C57/BL6 male mice [4]; 0.5 mg/kg i.p.): little effect compared to control | # of deaths (C57/BL6 male mice [4]; 0.5 mg/kg i.p.): 3 | # of extensions (C57/BL6 male mice [4]; 0.5 mg/kg i.p.): 3 | hyperactivity (side effect) (C57/BL6 male mice [5]; 1 mg/kg i.p.): observed

CC12CC3CC4C1CC1(N)CC2C(C3)C4(C)C1 [MDT-23, 4-amino-1,6-dimethyl-diamantane]
EC50 ([2]; Rattus norvegicus, Primary neuron, two experiments, 300 uM NMDA + 50 μM glycine 15 minutes, LDH after 24 hours, read-out: average EC50 (±SD), NMDA-induced LDH release): 11.1 ± 9.3 µM | inhibition of the peak amplitude of NMDA evoked currents (NMDA receptor; 10 μM): 11.6±4.3% | inhibition of the peak amplitude of NMDA evoked currents (NMDA receptor; 100 μM): 22.9±9.3% | reversibility of inhibition of NMDA evoked currents upon washout (NMDA receptor; washout of the compound): not reversible | # L3 per mouse (C57/BL6 male mice [3]; 10 mg/kg i.p.): 4.67 ± 1.65 | # L4 per mouse (C57/BL6 male mice [3]; 10 mg/kg i.p.): 1.67 ± 0.49 | L3 onset time (C57/BL6 male mice [3]; 10 mg/kg i.p.): 3.00 ± 0.20 min | L3 seizure rate (C57/BL6 male mice [3]; 10 mg/kg i.p.): 0.50 | L4 onset time (C57/BL6 male mice [3]; 10 mg/kg i.p.): 13.80 ± 4.40 min | L4 seizure rate (C57/BL6 male mice [3]; 10 mg/kg i.p.): 1.00 | Mortality rate (C57/BL6 male mice [3]; 10 mg/kg i.p.): 0.50 | # mice with L3 seizure (C57/BL6 male mice [3]; 10 mg/kg i.p.): 3 | # mice with L4 seizure (C57/BL6 male mice [3]; 10 mg/kg i.p.): 6 | # of deaths within 30 min (C57/BL6 male mice [3]; 10 mg/kg i.p.): 3 | Time to death (C57/BL6 male mice [3]; 10 mg/kg i.p.): 14.00 ± 6.60 min | # L3 per mouse (C57/BL6 male mice [3]; 30 mg/kg i.p.): 3.83 ± 2.44 | # L4 per mouse (C57/BL6 male mice [3]; 30 mg/kg i.p.): 1.00 ± 0.0 | L3 onset time (C57/BL6 male mice [3]; 30 mg/kg i.p.): 5.00 ± 1.90 min | L3 seizure rate (C57/BL6 male mice [3]; 30 mg/kg i.p.): 1.00 | L4 onset time (C57/BL6 male mice [3]; 30 mg/kg i.p.): 19.80 ± 4.20 min | L4 seizure rate (C57/BL6 male mice [3]; 30 mg/kg i.p.): 1.00 | Mortality rate (C57/BL6 male mice [3]; 30 mg/kg i.p.): 1.00 | average time of death (C57/BL6 male mice [3]; 30 mg/kg i.p., mice that died within 30 minute window): 22 ± 2.9 min | # mice with L3 seizure (C57/BL6 male mice [3]; 30 mg/kg i.p.): 6 | # mice with L4 seizure (C57/BL6 male mice [3]; 30 mg/kg i.p.): 6 | # of deaths within 30 min (C57/BL6 male mice [3]; 30 mg/kg i.p.): 6 | Time to death (C57/BL6 male mice [3]; 30 mg/kg i.p.): 22.00 ± 2.90 min | PTZ-induced death (C57/BL6 male mice [3]; 10 and 30 mg/kg i.p., 30 min observation): a certain reduction in PTZ-induced death | PTZ-induced death (C57/BL6 male mice [3]; high dose 30 mg/kg i.p., 30 min observation): died within 30 minutes | Extension rate (C57/BL6 male mice [4]; 10 mg/kg i.p.): 1.00 | Mortality rate (C57/BL6 male mice [4]; 10 mg/kg i.p.): 0.67 | # of deaths (C57/BL6 male mice [4]; 10 mg/kg i.p.): 4 | # of extensions (C57/BL6 male mice [4]; 10 mg/kg i.p.): 6 | Extension rate (C57/BL6 male mice [4]; 30 mg/kg i.p.): 1.00 | Mortality rate (C57/BL6 male mice [4]; 30 mg/kg i.p.): 0.17 | # of deaths (C57/BL6 male mice [4]; 30 mg/kg i.p.): 1 | # of extensions (C57/BL6 male mice [4]; 30 mg/kg i.p.): 6 | MES-induced death (C57/BL6 male mice [4]; 10 and 30 mg/kg i.p.): dose dependent reduction in MES-induced death | Fall Time (C57/BL6 male mice [5]; after, 20 min after 10 mg/kg i.p.): 42.98 ± 2.82 min | Fall Time (C57/BL6 male mice [5]; after, 20 min after 30 mg/kg i.p.): 31.37 ± 3.83 min | Fall Time (C57/BL6 male mice [5]; before (pre-treatment), 10 mg/kg group): 28.63 ± 3.10 min | Fall Time (C57/BL6 male mice [5]; before (pre-treatment), 30 mg/kg group): 39.77 ± 6.14 min | rotarod fall time, pre-treatment vs 20 min after injection (C57/BL6 male mice [5]; high dose 30 mg/kg i.p., paired t-test): loss of performance | rotarod performance after dosing vs. control (C57/BL6 male mice [5]; high dose 30 mg/kg i.p., unpaired t-test): statistically significant decreases in rotarod performance
